Measured values as given in the METLIN SMRT retention time set (Domingo-Almenara et al. 2019).

Assay: gradient 5% acetonitrile 3 min, to 50% in 2 min, to 85% in 15 min, held 3 min, 100 µL/min
Conditions: column: Zorbax Extend-C18 2.1 x 50 mm; eluents: water / acetonitrile, 0.1% formic acid
Summary of the method: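 Values are retention times taken from adduct peaks that software picked and an analyst inspected. The pure standards were run as mixtures of ~100 molecules on HPLC linked to a quadrupole time-of-flight mass spectrometer, in positive and negative ionization mode. A Zorbax Extend-C18 column (2.1 × 50 mm, 1.8 μm) was used at 100 μL/min with water and acetonitrile, each including 0.1% formic acid.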

RP-LC retention time [s]	SMILES
803	CCOC(=O)c1c(C)[nH]c(C(=O)N2CCCC(C(=O)NCc3ccc(F)cc3)C2)c1C (centres undefined)
879	CCc1noc(NC(C)=O)c1-c1ccc(C)c(S(=O)(=O)N2CCCCC2)c1
714	CCn1nccc1C(=O)N1CCCN(C2=NS(=O)(=O)C(c3ccccc3)=C2C)CC1
938	CCCS(=O)(=O)c1nc2ccc(NS(=O)(=O)Cc3cc(F)cc(F)c3)cc2s1
602	Cc1ccc(C(=O)NCc2ccc(-n3ccnc3)cc2)s1
675	O=C(Nc1cccc(F)c1)[C@@H]1OCCN(C2CC2)[C@H]1c1ccccc1
970	CC(C)Cn1cc(CCNC(=O)Nc2ccc(C(F)(F)F)cc2)c2cccnc21
954	CC1CCN(C(=O)c2cn(-c3ccc(S(=O)(=O)N4CCCC(C)C4)cn3)cn2)CC1 (centres undefined)
736	COc1ccc(OCc2noc(CNC(=O)C3CC(=O)N(c4ccccc4)C3)n2)cc1 (centres undefined)
650	NC(=O)Nc1cc(-c2cccc(F)c2)sc1C(=O)N[C@H]1CCCNC1
921	O=S(=O)(Nc1cc(-c2ccoc2)no1)c1ccc2c(c1)CCC2
803	Cc1cc(N2CCOCC2)nc(N2CCN(S(=O)(=O)c3ccc(-c4ccccc4)cc3)CC2)n1
608	Cc1ccnc(NS(=O)(=O)c2ccc(NC(=O)c3nc(-c4cnccn4)no3)cc2)n1
878	COc1ccc2[nH]cc(CCNC(=O)c3cc(Cl)ccc3Cl)c2c1
625	O=C(c1ccccn1)N1CCC(n2c(-c3ccsc3)nc3cccnc32)C1 (centres undefined)
580	CC(NC(=O)c1ccc2c(c1)OCO2)C(=O)N1CCN(c2ccccn2)CC1 (centres undefined)
736	O=C(Nc1ccccc1)Nc1ccccn1
704	COCCCNC(=O)C1c2ccccc2C(=O)N1Cc1ccccc1 (centres undefined)
727	COc1ccc(NC(=O)N2CCC(c3nc(C(=O)N4CCCC4)c(C)o3)CC2)cc1
597	Cn1nnnc1NCc1ccc2c(c1)n(C)c(=O)n2C
874	CCOC(=O)c1c(S(=O)(=O)N2CCC(C(=O)Nc3ccccc3C)CC2)c(C)n(CC)c1C
1160	CCN(CCNC(=O)c1ccc2[nH]c3c(c2c1)CN(C(C)=O)CC3)c1ccccc1
882	O=c1cc(N2CCOCC2)oc2c1ccc1ccccc12

RP-LC retention time [s]	SMILES
642	CCOC(=O)CNC(=O)N1CCC(n2c(-c3ccc(C)cc3)nc3cccnc32)C1 (centres undefined)
674	Cc1ccc2c(C(=O)NCc3ccccc3Cl)cc(NC(=O)C(C)C)cc2n1
963	CCOc1ccc(-n2c(N3CCCC3)nc3cc(C(=O)OC)ccc3c2=O)cc1
1060	COc1ccc(-c2ncc3c(n2)CCN(S(=O)(=O)c2ccc(F)c(F)c2)C3)cc1
895	CCOc1cccc(-c2noc(Cn3ccn(-c4ccc(Cl)cc4)c(=O)c3=O)n2)c1
804	CCOc1ccc(S(=O)(=O)N(C)C2CCc3nn(CC4CC4)c(=O)n3CC2)cc1 (centres undefined)
783	O=C(Nc1cccc(F)c1)N1CCN(c2ncccc2-c2nnc(C3CC3)o2)CC1
1000	CCN1C(=O)CCc2cc(NS(=O)(=O)c3cccc(Cl)c3)ccc21
882	CS(=O)(=O)N1CCC(C(=O)NCc2ccccc2)Oc2ccc(Cl)cc21 (centres undefined)
887	Cc1ccc(-c2cn3c(CC(=O)NCCCc4ccccc4)csc3n2)cc1C
783	CC1CCCC(C)N1CCCNC(=O)c1cc2sccc2n1Cc1ccc(Cl)cc1 (centres undefined)
764	O=C(NCc1ccccc1)C1CC(=O)N(CCc2c[nH]c3ccc(F)cc23)C1 (centres undefined)
556	O=C(CN1CCOCC1)Nc1ccc(Br)cc1
838	Cc1ccc(-c2nnc(N3CCC(C(=O)NCc4ccc5c(c4)OCO5)CC3)o2)cc1
802	CCN1c2ccc(C)cc2C(=O)NC12CCN(C(=O)Cc1cccc(OC)c1)CC2
579	COc1ccccc1C(=O)Nc1ccc2nc(N3CCN(CC(=O)N(C)C)CC3)cc(C(=O)O)c2c1
869	Cc1cccc(-c2nc(C)c(C(=O)NC3CC3)s2)c1
690	Cn1c(=O)c2nc(SCCC(=O)Nc3ccc(F)cc3)n(C)c2n(C)c1=O
949	Cc1[nH]c(C(=O)Nc2ccc(F)cc2F)c(C)c1S(=O)(=O)N1CCCCC1
660	COCCn1c(CC2CCN(C(=O)Nc3ccc(F)c(Cl)c3)C2)nc2cccnc21 (centres undefined)
639	O=C(c1ccco1)N1CCC(n2cnnc2-c2ccccc2)CC1
664	O=C(CN1CCc2[nH]c3c(F)c(Cl)ccc3c(=O)c2C1)NCc1ccccc1F
732	OC(CN1CCNCC1)Cn1c2ccc(Br)cc2c2cc(Br)ccc21 (centres undefined)

RP-LC retention time [s]	SMILES
874	CC(=O)Cc1nsc(NC(=O)c2ccc(C(C)(C)C)cc2)n1
568	O=C(NCCCN1CCOCC1)C1CCc2sc(C(=O)N3CCOCC3)cc2C1 (centres undefined)
850	CC1=C(c2ccc(Cl)cc2)S(=O)(=O)N=C1N1CCCN(C(=O)C2CCC2)CC1
680	O=C(CCn1ccc2cc(S(=O)(=O)N3CCCCC3)ccc21)N1CCN(c2ccccn2)CC1
597	COc1ccc(-c2nc3cc(C)ccn3c2NC(=O)c2ccc(F)cc2)cc1OC
835	CCn1cc(C)c(C(=O)O)c1CC(=O)Nc1ccc(Cl)cn1
968	COc1ccc(-c2nc(Cn3ccn4nc(-c5ccc(OC)c(OC)c5)cc4c3=O)c(C)o2)cc1
697	COc1ccc(Cl)cc1C(=O)N1CCC(C(=O)Nc2nccs2)CC1
904	CCc1noc(-c2ccnc(-n3ncc(C(=O)N4CCSCC4)c3C)c2)n1
706	CC(Cc1cccs1)NC(=O)c1cnccn1 (centres undefined)
887	Cc1c(C(=O)NC2CCCC2)cnn1-c1cc(-c2nc(C3CC3)no2)ccn1
827	Cn1nc(N2CCCC(NC(=O)c3cc4cc(Cl)ccc4[nH]3)C2)ccc1=O (centres undefined)
714	Cc1cccc(NC(=O)Cn2nc3c(N(C)C4CCCCC4)nccn3c2=O)c1
956	CC1=NS(=O)(=O)N(C)C=C1C(=O)OCc1nc(Cc2ccc(C)cc2)no1
717	Cc1nc2c(ccc3nc(NC(=O)c4ccc(N5C(=O)CCC5=O)cc4)sc32)s1
1190	CCc1ccc(N2C(=O)C3N=NN(c4ccc(Br)c(C)c4)C3C2=O)cc1 (centres undefined)
768	COc1ccc(NC(=O)Cn2c(=O)nc(N3CCC(C)CC3)c3ccccc32)cc1OC
642	COCCN1C(=O)c2ccccc2C(C(=O)NCc2ccccn2)C1c1cccs1 (centres undefined)
615	O=C(Cn1ncc2c(c1=O)N(C1CC1)C(=O)CS2)NC1CCCC1
594	CCNC(=O)N1CCC(c2noc(-c3ccccn3)n2)C1 (centres undefined)
788	Cn1c(=O)c(N2CCCC(C(=O)NCc3ccco3)C2)nc2cccnc21 (centres undefined)
974	CCC(=O)Nc1cc2c(cc1Sc1ccc(OC)cc1)n(C)c(=O)n2C
636	O=C(Cc1csc(Nc2cccc(C(F)(F)F)c2)n1)NCc1ccco1

RP-LC retention time [s]	SMILES
577	O=C(NCCCN1CCC(N2CCCCC2)CC1)c1cc(=O)n2c(nc3ccccc32)s1
892	O=C(NCCn1nnc2cc(C(=O)N3CCCC3)ccc21)Nc1ccccc1Cl
614	CC1(C)CC(=O)C2=C(C1)Nc1ccccc1N(CC(=O)NCc1cccnc1)C2c1ccco1 (centres undefined)
1060	Cc1cc(C)n2c(Nc3cccc(C(F)(F)F)c3)c(-c3cc(Br)ccc3O)nc2n1
804	O=C1CC(C(=O)N2CCc3ccccc3C2)CN1CCc1c[nH]c2ccc(F)cc12 (centres undefined)
652	O=C(NCc1cccc(F)c1)N1CCCC(Cn2cnc3cccnc32)C1 (centres undefined)
1010	Cc1ccc(CNC(=O)Cn2c(=O)cc(-c3nc(C(C)C)no3)c3ccccc32)cc1
736	Cc1c(Cl)cccc1NC(=O)N1CCC(c2cc(N)on2)CC1
901	Fc1ccc(-c2noc(-c3ccc(NC4CC4)nc3)n2)cc1
790	CCCNC(=O)CCc1nc2ccccc2n(CC(=O)Nc2cc(Cl)c(OC)cc2OC)c1=O
688	Fc1ccc(OCc2cn(C3CN(Cc4cccc(F)c4)C3)nn2)cc1
751	COCCC(=O)Nc1c(-c2ccccc2)nc2sc(N3CCCCC3)nn12
1260	CCOC(=O)C1CCC(CNC(=O)Nc2ccc(-c3nc(-c4cc(C)ccc4C)co3)cc2)CC1 (centres undefined)
596	CCCC(=O)N1CCC(C(=O)NCCc2cscn2)CC1
808	O=C1NCCCn2cc(S(=O)(=O)N(Cc3ccccc3)c3ccccc3)cc21
714	Cc1ccc(NC(=O)Cn2nc3c(N4CCCCCC4)nccn3c2=O)c(C)c1
658	COc1ccccc1/C=C/c1nc(C#N)c(NCCCN(C)C)o1
951	CCOc1ccc(CCNC(=O)c2cc(S(=O)(=O)N3CCCC3)c(C)n2C)cc1OCC
779	O=C(CCc1c(-c2ccc(F)cc2)nc2ccccn12)NCc1ccccc1Cl
923	CCCN(C)c1ccc2ncc(=O)n(C)c2n1
